Usually IC50 stands for the concentration needed to halve the response being measured. High values mean lower potency, low ones higher potency.

In brackets after ≈: the same amount, converted by molar mass.

Experiment [1] has as its system Escherichia coli. Description: In vitro antibacterial activity against Escherichia coli AS19 (Eco2), permeable mutant was determined. In kind it is functional.
Experiment [2] has as its system Escherichia coli. Briefly: In vitro antibacterial activity against Escherichia coli ATCC 25922 (Ecol) was determined. In kind it is functional.
For experiment [3], the system named is Staphylococcus aureus. Briefly: In vitro antibacterial activity against […] Staphylococcus aureus ATCC 29213 (Saul). In kind it is functional.
Experiment [4] relates to Staphylococcus aureus. Description: In vitro antibacterial activity against oxazolidinone Linezolid resistant Staphylococcus aureus (Sau3LZD) was determined. In kind it is functional.
Experiment [5] relates to Staphylococcus aureus. Description: In vitro antibacterial activity against ciprofloxacin and methicillin resistant Staphylococcus aureus (Sau2CIP) was determined. In kind it is functional.
Experiment [6] has as its system Haemophilus influenzae. Briefly: In vitro antibacterial activity against Haemophilus influenzae 11 (Hin) was determined. In kind it is functional.
Experiment [7] relates to Enterococcus faecalis. Description: In vitro antibacterial activity against Enterococcus faecalis ATCC 29212 (Efs) was determined. In kind it is functional.
In experiment [8] the test system is Enterococcus faecium. Briefly: In vitro antibacterial activity against vancomycin and ciprofloxacin resistant Enterococcus faecium (Efm CIP) was determined. In kind it is functional.
Experiment [9] addresses DNA gyrase (Escherichia coli, UniProt P0AES4+P0AES6). Description: Inhibitory activity against DNA gyrase enzyme was determined by supercoiling assay with Escherichia coli DNA gyrase. In kind it is protein-complex assay.
For experiment [10], the system named is Escherichia coli. Briefly: In vitro inhibitory activity against protein synthesis was determined by transcription/translation assay with Escherichia coli S30 Extract System. In kind it is functional.
The nature of experiment [11]: Inhibitory activity against Escherichia coli Topoisomerase IV in relaxation assay. In kind it is functional.

For the molecule `CC(=O)NC[C@H]1CN(c2ccc(OCCC3CCN(c4nc5c(cc4F)c(=O)c(C(=O)O)cn5C4CC4)C3)c(F)c2)C(=O)O1` (stereo not given in full), the MIC in [1] is not above 0.06 µg/mL; in experiment [2], 2 µg/mL (≈ 3.27 µM); in experiment [3] it was 0.125 µg/mL (≈ 0.204 µM); in experiment [4], 0.125 µg/mL (≈ 0.204 µM); in experiment [5] it was 0.125 µg/mL (≈ 0.204 µM); in experiment [6], 0.5 µg/mL (≈ 0.818 µM). Moreover, the MIC in [7] is 0.06 µg/mL (≈ 0.0981 µM); in experiment [8], 0.125 µg/mL (≈ 0.204 µM).
For the molecule `CC(=O)NC[C@H]1CN(c2ccc(OC[C@@H]3CCN(c4nc5c(cc4F)c(=O)c(C(=O)O)cn5C4CC4)C3)c(F)c2)C(=O)O1`, the MIC was not above 0.06 µg/mL in [1]; 1 µg/mL (≈ 1.67 µM) in experiment [2]; not above 0.06 µg/mL in experiment [3]; not above 0.06 µg/mL in experiment [4]; 0.25 µg/mL (≈ 0.418 µM) in [5]; 0.125 µg/mL (≈ 0.209 µM) in experiment [6]. Further, the MIC was 0.125 µg/mL (≈ 0.209 µM) in [7] and 0.5 µg/mL (≈ 0.837 µM) in experiment [8].
On to `CC(=O)NC[C@H]1CN(c2ccc(OC3CCN(c4nc5c(cc4F)c(=O)c(C(=O)O)cn5C4CC4)CC3)c(F)c2)C(=O)O1`, for which the IC50 in experiment [9] was found to be 50 µM; in experiment [10], 5.2 µM; in [11], 5 µM. The MIC in experiment [1] was found to be 0.25 µg/mL (≈ 0.418 µM); in experiment [2] it was 32 µg/mL (≈ 53.5 µM); in experiment [3], 0.25 µg/mL (≈ 0.418 µM); in experiment [4] it was 1 µg/mL (≈ 1.67 µM); in [5], 0.25 µg/mL (≈ 0.418 µM); in experiment [6], 1 µg/mL (≈ 1.67 µM). In addition, the MIC in experiment [7] was 0.125 µg/mL (≈ 0.209 µM); in experiment [8], 0.25 µg/mL (≈ 0.418 µM).
In the case of `CC(=O)NC[C@H]1CN(c2ccc(OC3CCCN(c4nc5c(cc4F)c(=O)c(C(=O)O)cn5C4CC4)CC3)c(F)c2)C(=O)O1` (stereo not given in full), the MIC in experiment [1] was not above 0.06 µg/mL; in experiment [2], 8 µg/mL (≈ 13.1 µM); in experiment [3], 0.5 µg/mL (≈ 0.818 µM); in experiment [4], 0.5 µg/mL (≈ 0.818 µM); in experiment [5], 0.25 µg/mL (≈ 0.409 µM); in [6] it was 1 µg/mL (≈ 1.64 µM). For the same molecule, the MIC in [7] was 0.25 µg/mL (≈ 0.409 µM); in [8] it was 0.5 µg/mL (≈ 0.818 µM).
With `CC(=O)NC[C@H]1CN(c2ccc(OCC3CCN(c4nc5c(cc4F)c(=O)c(C(=O)O)cn5C4CC4)C3)c(F)c2)C(=O)O1` (stereo not given in full), the IC50 in experiment [9] was 2 µM; in [10] it was 1.5 µM. The MIC is not above 0.06 µg/mL in experiment [1]; 1 µg/mL (≈ 1.67 µM) in [2]; 0.125 µg/mL (≈ 0.209 µM) in experiment [3]; not above 0.06 µg/mL in [4]; 0.125 µg/mL (≈ 0.209 µM) in [5]; 0.125 µg/mL (≈ 0.209 µM) in experiment [6]. The figures for the MIC in experiment [7] and in experiment [8] were 0.125 µg/mL (≈ 0.209 µM) and 0.25 µg/mL (≈ 0.418 µM), respectively.
As for `CC(=O)NC[C@H]1CN(c2ccc(OC3CCCN(c4nc5c(cc4F)c(=O)c(C(=O)O)cn5C4CC4)C3)c(F)c2)C(=O)O1` (stereo not given in full), the MIC in [1] is 8 µg/mL (≈ 13.4 µM); in experiment [2], more than 32 µg/mL; in experiment [3] it was 32 µg/mL (≈ 53.5 µM); in [4] it was 16 µg/mL (≈ 26.8 µM); in experiment [5] it was 16 µg/mL (≈ 26.8 µM); in experiment [6] it was 2 µg/mL (≈ 3.35 µM). In addition, the MIC in experiment [7] was 16 µg/mL (≈ 26.8 µM); in experiment [8] it was more than 32 µg/mL.
On to `CC(=O)NC[C@H]1CN(c2ccc(O[C@@H]3CCN(c4nc5c(cc4F)c(=O)c(C(=O)O)cn5C4CC4)C3)c(F)c2)C(=O)O1`, for which the MIC in [1] is not above 0.06 µg/mL; in experiment [2], 8 µg/mL (≈ 13.7 µM); in experiment [3], 1 µg/mL (≈ 1.71 µM); in experiment [4], 0.5 µg/mL (≈ 0.857 µM); in experiment [5], 0.5 µg/mL (≈ 0.857 µM); in [6] it was 0.5 µg/mL (≈ 0.857 µM). Besides, the MIC was found to be 0.5 µg/mL (≈ 0.857 µM) in [7] and 2 µg/mL (≈ 3.43 µM) in [8].
For the molecule `CC(=O)NC[C@H]1CN(c2ccc(N[C@@H]3CCN(c4nc5c(cc4F)c(=O)c(C(=O)O)cn5C4CC4)C3)c(F)c2)C(=O)O1`, the MIC in experiment [1] was not above 0.06 µg/mL; in experiment [2], 0.5 µg/mL (≈ 0.858 µM); in experiment [3], not above 0.06 µg/mL; in experiment [4], not above 0.06 µg/mL; in experiment [5], 1 µg/mL (≈ 1.72 µM); in experiment [6] it was not above 0.06 µg/mL. The MIC in [7] was not above 0.06 µg/mL; in experiment [8], 8 µg/mL (≈ 13.7 µM).
Take `CC(=O)NC[C@H]1CN(c2ccc(OCC3CCN(c4nc5c(cc4F)c(=O)c(C(=O)O)cn5C4CC4)CC3)c(F)c2)C(=O)O1`: the MIC in experiment [1] is 0.125 µg/mL (≈ 0.204 µM); in [2] it was more than 32 µg/mL; in [3], 0.125 µg/mL (≈ 0.204 µM); in [4], 1 µg/mL (≈ 1.64 µM); in [5] it was 0.125 µg/mL (≈ 0.204 µM); in experiment [6], 0.5 µg/mL (≈ 0.818 µM). Besides, the MIC in experiment [7] is not above 0.06 µg/mL; in experiment [8] it was 0.125 µg/mL (≈ 0.204 µM).
For the molecule `CC(=O)NC[C@H]1CN(c2ccc(OC[C@H]3CCN(c4nc5c(cc4F)c(=O)c(C(=O)O)cn5C4CC4)C3)c(F)c2)C(=O)O1`, the MIC in experiment [1] is not above 0.06 µg/mL; in experiment [2], 1 µg/mL (≈ 1.67 µM); in [3], 0.125 µg/mL (≈ 0.209 µM); in experiment [4], 0.125 µg/mL (≈ 0.209 µM); in [5], 0.125 µg/mL (≈ 0.209 µM); in experiment [6] it was 0.25 µg/mL (≈ 0.418 µM). Also, the MIC is 0.06 µg/mL (≈ 0.1 µM) in experiment [7] and 0.125 µg/mL (≈ 0.209 µM) in experiment [8].
Regarding `CC(=O)NC[C@H]1CN(c2ccc(OC3CN(c4nc5c(cc4F)c(=O)c(C(=O)O)cn5C4CC4)C3)c(F)c2)C(=O)O1`, the MIC in experiment [1] was not above 0.06 µg/mL; in [2], 1 µg/mL (≈ 1.76 µM); in [3] it was 0.25 µg/mL (≈ 0.439 µM); in [4], not above 0.06 µg/mL; in experiment [5] it was 0.5 µg/mL (≈ 0.878 µM); in [6] it was 0.125 µg/mL (≈ 0.219 µM). Moreover, the MIC in experiment [7] came to 0.5 µg/mL (≈ 0.878 µM); in experiment [8], 2 µg/mL (≈ 3.51 µM).
On to `CC(=O)NC[C@H]1CN(c2ccc(OCCC3CCN(c4nc5c(cc4F)c(=O)c(C(=O)O)cn5C4CC4)CC3)c(F)c2)C(=O)O1`, for which the MIC is not above 0.06 µg/mL in experiment [1]; more than 32 µg/mL in experiment [2]; 0.125 µg/mL (≈ 0.2 µM) in [3]; 1 µg/mL (≈ 1.6 µM) in experiment [4]; 0.125 µg/mL (≈ 0.2 µM) in experiment [5]; 2 µg/mL (≈ 3.2 µM) in [6]. Besides, the MIC in [7] and in experiment [8] was 0.125 µg/mL (≈ 0.2 µM) each time.
Take `CC(=O)NC[C@H]1CN(c2ccc(N3CCN(c4nc5c(cc4F)c(=O)c(C(=O)O)cn5C4CC4)CC3)c(F)c2)C(=O)O1`: the figures for the IC50 in experiment [9], in experiment [10] and in experiment [11] were 50 µM, 2.8 µM and 10 µM, respectively. In addition, the MIC is 0.06 µg/mL (≈ 0.103 µM) in [1]; 32 µg/mL (≈ 54.9 µM) in [2]; 0.25 µg/mL (≈ 0.429 µM) in [3]; 8 µg/mL (≈ 13.7 µM) in experiment [4]; 0.25 µg/mL (≈ 0.429 µM) in experiment [5]; 1 µg/mL (≈ 1.72 µM) in [6]. Moreover, the MIC in experiment [7] was found to be 0.125 µg/mL (≈ 0.215 µM); in experiment [8], 0.25 µg/mL (≈ 0.429 µM).
On to `CC(=O)NC[C@H]1CN(c2ccc(O[C@H]3CCN(c4nc5c(cc4F)c(=O)c(C(=O)O)cn5C4CC4)C3)c(F)c2)C(=O)O1`, for which the values for the IC50 in experiment [9], in [10] and in [11] were 10 µM, 6.7 µM and 3 µM, respectively. For the same molecule, the MIC in experiment [1] was not above 0.06 µg/mL; in experiment [2], 1 µg/mL (≈ 1.71 µM); in [3], not above 0.06 µg/mL; in [4], not above 0.06 µg/mL; in experiment [5], 0.25 µg/mL (≈ 0.428 µM); in experiment [6] it was not above 0.06 µg/mL. The MIC in [7] was 0.125 µg/mL (≈ 0.214 µM); in experiment [8], 1 µg/mL (≈ 1.71 µM).
On to `O=C(O)c1cn(C2CC2)c2cc(N3CCNCC3)c(F)cc2c1=O` [CIPROFLOXACIN], for which the MIC in [1] is not above 0.03 µg/mL; in experiment [2], not above 0.03 µg/mL; in experiment [3] it was 0.5 µg/mL (≈ 1.51 µM); in experiment [4], 0.5 µg/mL (≈ 1.51 µM); in experiment [5], more than 32 µg/mL; in [6] it was not above 0.03 µg/mL. Besides, the MIC is 1 µg/mL (≈ 3.02 µM) in experiment [7] and more than 32 µg/mL in experiment [8]. For the same molecule, the IC50 in experiment [10] was more than 20 µM; in [11] it was 2.5 µM.
With `CC(=O)NC[C@H]1CN(c2ccc(N3CCOCC3)c(F)c2)C(=O)O1` [LINEZOLID], the MIC in [1] is 8 µg/mL (≈ 23.7 µM); in experiment [2], more than 64 µg/mL; in experiment [4], 64 µg/mL (≈ 190 µM); in [5], 1 µg/mL (≈ 2.96 µM); in experiment [6], 8 µg/mL (≈ 23.7 µM); in [8], 2 µg/mL (≈ 5.93 µM). In [10], this molecule had an IC50 of 4.1 µM.
